Assay results published in patent US6627771B1, “Gamma amino butyric and acid analogs” (Pfizer Inc, priority 1998, dated 2003).
pIC50: −log10 of the molar value. Where two headings read alike, the source gives them in different places.

Legend:
[1] = target: System L; test: System L Binding
[2] = system: Carrageenin-Induced Hyperalgesia; test: Pain Model (Carrageenin-Induced Hyperalgesia, rat paw pressure test); type: in vivo
Protocol: Carrageenin-Induced Hyperalgesia
Nociceptive pressure thresholds were measured in the rat paw pressure test using an analgesymeter (Randall-Sellitto Method: Randall L. O., Sellitto J. J., A method for measurement of analgesic activity on inflamed tissue. Arch. Int. Pharmacodyn., 4:409-419 (1957)). Male Sprague-Dawley rats (70-90 g) were trained on this apparatus before the test day. Pressure was gradually applied to the hind paw of each rat and nociceptive thresholds were determined as the pressure (g) required to elicit paw withdrawal. A cutoff point of 250 g was used to prevent any tissue damage to the paw. On the test day, two to three baseline measurements were taken before animals were administered 100 μL of 2% carrageenin by intraplantar injection into the right hind paw.

[3] = system: sound-induced seizure responses in DBA/2 mice; test: DBA2 Mouse Model of Anticonvulsant Efficacy; type: in vivo; details: for responders at 30 mg/kg: Mus musculus, po, read-out: DBA2 Mouse Model % Protected
Protocol: DBA2 Mouse Model of Anticonvulsant Efficacy
All procedures were carried out in compliance with the NIH Guide for the Care and Use of Laboratory Animals under a protocol approved by the Parke-Davis Animal Use Committee. Male DBA/2 mice, 3 to 4 weeks old were obtained from Jackson Laboratories Bar Harbour, Maine. Immediately before anticonvulsant testing, mice were placed upon a wire mesh, 4 inches square, suspended from a steel rod. The square was slowly inverted through 180° and mice observed for 30 seconds. Any mouse falling from the wire mesh was scored as ataxic (Coughenour L. L., McLean J. R., Parker R. B., “A new device for the rapid measurement of impaired motor finction in mice,” Pharm. Biochem. Behav., 1977;6(3):351-3). Mice were placed into an enclosed acrylic plastic chamber (21 cm height, approximately 30 cm diameter) with a high-frequency speaker (4 cm diameter) in the center of the top lid. An audio signal generator (Protek model B-810) was used to produce a continuous sinusoidal tone that was swept linearly in frequency between 8 kHz and 16 kHz once each 10 msec. The average sound pressure level (SPL) during stimulation was approximately 100 dB at the floor of the chamber. Mice were placed within the chamber and allowed to acclimatize for one minute. […] The incidence of all the seizure phases in the drug-treated and vehicle-treated mice was recorded, and the occurrence of tonic seizures were used for calculating anticonvulsant ED50 values by probit analysis (Litchfield J. T., Wilcoxon F. “A simplified method for evaluating dose-effect experiments,” J. Pharmacol., 1949;96:99-113). […] Groups of DBA/2 mice (n=5-10 per dose) were tested for sound-induced seizure responses 2 hours (previously determined time of peak effect) after given drug orally. […] Doses are expressed as weight of the active drug moiety.

[4] = system: Vogel Conflict (punished drinking) in Wistar rats; test: Vogel Conflict; type: in vivo, rat; details: summary of Table 1
Protocol: Vogel J. R., Beer B. and Cloody D. E., 1971, reported the procedure used. Basically, in each experiment, 100 näive adult male Wistar rats between 170-220 gm were randomly divided into 10 groups and deprived of water for 48 hours prior to testing. Food was available on Day 1 and removed 24 hours prior to test Day 2.
On Day 1, experimental subjects were placed into the test chambers and allowed to drink 5 mL of water unpunished from a drinking tube on a water bottle mounted on the outside of the chamber. Immediately following the unpunished drinking session, each rat was dosed (PO) with vehicle (1 mL/kg) and returned to their home cage. On test Day 2, rats are dosed with the appropriate treatment and placed in test cages, following a 2-hour absorption period each rat is placed into a test chamber and allowed to drink for 10 minutes. Adjacent to the drink-tube is an optical lickmeter with a photo beam detector that counts the number of licks during active drinking. Every 10 licks, the rats received 1-second shock (1 mA) through the drink tube. Thus, a conflict or anxiety-producing situation exists; rats are motivated to drink, however, they are inhibited by the shock. Anxiety is reflected by the low amounts of drinking. Standard anxiolytic drugs produce effects that allow rats to overcome this behavioral inhibition and drink despite the shock.

| SMILES | pIC50 [1] | Pain Model % MPE 1 Hour [2] [% MPE] | Pain Model % MPE 2 Hour [2] [% MPE] | preventing convulsions ([3]; summary of Table 1) | antihyperalgesic activity ([2]; summary of Table 1) | antianxiety activity [4] | responders at 30 mg/kg ([3]; 1 Hr @ 30 m/k) [%] | responders at 30 mg/kg ([3]; 2 Hr @ 30 m/k) [%] |
| --- | --- | --- | --- | --- | --- | --- | --- | --- |
| NCC(CC(=O)O)CC1CCCCC1 (centres unmarked) [Example 9] | 2.26 |  |  |  |  |  |  |  |
| NC[C@@H](CC(=O)O)C1CCCC1 [5S−, (S)-4-Amino-3-cyclopentyl-butyric Acid] | 3.32 | 35 | 24 |  |  |  |  |  |
| CC(CN)(CC(=O)O)C1CCC1 (centres unmarked) [Example 11] | 4.13 | 4.2 | 3.1 |  |  |  |  |  |
| NCC(CC(=O)O)CC1CCC1 (centres unmarked) [Example 7] | 2.59 | 1.5 | −3.4 |  |  |  |  |  |
| NC[C@H](CC(=O)O)C1CCCC1 [4R+, 4(R)-Amino-3-cyclopentyl-butyric Acid] | 3.70 | 36 | 13.7 | especially active | especially active | especially active |  |  |
| CC(CN)(CC(=O)O)C1CC1 (centres unmarked) [Example 10] | 3.22 | −4.3 | −9.1 |  |  |  |  |  |
| NCC(CC(=O)O)C1CCCC1 (centres unmarked) [Example 3, 4-Amino-3-cyclopentyl-butyric Acid] | 3.33 | 73.8 | 27.7 |  |  |  |  |  |
| CC(CN)(CC(=O)O)CC1CCC1 (centres unmarked) [Example 12] | 3.98 | −4.2 | −5.2 |  |  |  |  |  |
| NCC(CC(=O)O)CC1CC1 (centres unmarked) [Example 6] | 2.73 | 2.3 | −3.4 |  |  |  |  |  |
| NCC(CC(=O)O)CC1CCCC1 (centres unmarked) [Example 8] | 2.33 |  |  |  |  |  |  |  |
| NCC(CC(=O)O)C1CCC1 (centres unmarked) [Example 2, 4-Amino-3-cyclobutyl-butyric Acid] | 2.82 | −1.7 | −12.1 |  |  |  | 0 | 40 |
| CC(CN)(CC(=O)O)CC1CCCC1 (centres unmarked) [Example 13] | 2.98 |  |  |  |  |  |  |  |
